Measurements: patent US20250320205A1, “STAT6 DEGRADERS” (Gilead Sciences, Inc., priority 2024, published 2025)

Each compound was assayed against T1, STAT6 (Homo sapiens, UniProt P42226) (assay: STAT6 Degrader Assay (HiBiT based, HeLa LgBiT clone 4.14 cells)). Details: HeLa; maximal STAT6 degradation.
T1 construct: These cells express endogenous STAT6; host or cells: HeLa LgBiT clone 4.14 (CRISPR knock-in of HiBiT into the endogenous STAT6 gene)
T1 sequence (P42226 1-847): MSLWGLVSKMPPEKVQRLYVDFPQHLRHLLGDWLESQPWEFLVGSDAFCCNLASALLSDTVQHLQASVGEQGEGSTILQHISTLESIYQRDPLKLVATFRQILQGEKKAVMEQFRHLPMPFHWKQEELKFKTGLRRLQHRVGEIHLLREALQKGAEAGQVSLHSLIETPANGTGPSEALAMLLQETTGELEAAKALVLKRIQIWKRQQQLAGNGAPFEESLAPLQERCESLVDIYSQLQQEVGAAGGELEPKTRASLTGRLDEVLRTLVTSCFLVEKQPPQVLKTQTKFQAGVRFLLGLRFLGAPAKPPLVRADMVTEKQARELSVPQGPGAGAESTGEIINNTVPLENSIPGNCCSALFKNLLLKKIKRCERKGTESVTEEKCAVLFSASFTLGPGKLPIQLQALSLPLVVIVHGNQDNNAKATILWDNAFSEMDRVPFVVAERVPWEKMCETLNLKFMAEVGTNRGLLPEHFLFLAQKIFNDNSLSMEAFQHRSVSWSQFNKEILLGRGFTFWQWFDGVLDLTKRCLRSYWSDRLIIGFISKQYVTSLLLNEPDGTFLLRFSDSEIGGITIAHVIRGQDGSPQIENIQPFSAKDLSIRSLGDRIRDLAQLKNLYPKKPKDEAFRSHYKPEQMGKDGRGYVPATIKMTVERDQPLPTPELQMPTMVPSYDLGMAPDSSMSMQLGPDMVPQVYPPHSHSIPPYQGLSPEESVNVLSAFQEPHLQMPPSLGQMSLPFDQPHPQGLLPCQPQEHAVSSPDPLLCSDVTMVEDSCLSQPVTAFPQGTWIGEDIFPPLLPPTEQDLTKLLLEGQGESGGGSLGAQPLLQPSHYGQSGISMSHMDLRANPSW
Type: cell-based
Experimental: This was a HiBit based assay. A HeLa cell line stably transfected with a small protein, LgBit (Large Bit) was obtained from Promega. These cells express endogenous STAT6. A small 11 amino acid gene sequence (HiBiT) was inserted in the STAT6 gene using CRISPR technology. Once STAT6 protein is expressed in the cells, the HiBiT sequence will bind the LgBit in the cells resulting in a functional NanoBiT protein, giving a luminescent tag to STAT6. Single cell clones were prepared and the clone 4.14 was selected for the assay based on that clone showing high luminescence, high STAT6 phosphorylation upon stimulation with IL-4, and inhibition of luminescence when cells were treated with STAT6 siRNA. HeLa LgBiT clone 4.14 cells were suspended in DMEM with 10% FCS, 1% Pen/Strep, Na-pyrovate and Hygromycin B, at a concentration of 1.25*105 cells pr mL. 5000 cells were added pr well of a 384 well plate and 20 nL of compound was added by Echo® liquid handler. NN6394A (terfenadine, a toxic compound) was added to control wells at 50 μM concentration to establish the assay window. In these wells the cells are dead which equals 100% degradation of STAT6. After 4-24 h of incubation at 37° C. under 5% CO2/95% air, 5 μL substrate (Nano-GLO®) was added to the wells and the plates were centrifuged and incubated for 0.5 h. The luminescence in the wells as a measure of non-degraded STAT6 was measured in a plate reader (BMG Pherastar FSX). The measured DC50 (in nM) was determined.

Row | SMILES | Emax [%]
1 | CNc1ccn(-c2ccnc3c2cc(CN2CCC(c4c(C)cc(C(=O)N5CCN(C(=O)CN6CCN(c7ccc(NC8CCC(=O)NC8=O)cc7F)CC6)CC5)cc4F)CC2)n3C)c(=O)c1 (stereo not drawn) [Example 2g132, 3-((3-fluoro-4-(4-(2-(4-(3-fluoro-5-methyl-4-(1-((1-methyl-4-(4-(methylamino)-2-oxopyridin-1(2H)-yl)-1H-pyrrolo[2,3-b]pyridin-2-yl)-methyl)piperidin-4-yl)benzo-yl)piperazin-1-yl)-2-oxo-ethyl)piperazin-1-yl)phenyl)-amino)piperidine-2,6-dione] | 40 to 50
2 | Cc1cc(C(=O)N(C)c2ccc(C3CCN(c4ccc(NC5CCC(=O)NC5=O)cc4F)CC3)cc2)cc(F)c1C1=CCN([C@H](C)c2cc3c(-n4ccc5[nH]ncc5c4=O)ccnc3n2C)CC1 (stereo partly drawn) [Example 2g133, N-(4-(1-(4-((2,6-dioxopiperi-din-3-yl)amino)-2-fluoro-phenyl)piperidin-4-yl)phen-yl)-3-fluoro-N,5-dimethyl-4-(1-((R)-1-(1-methyl-4-(4-oxo-1,4-dihydro-5H-pyrazolo[4,3-c]pyridin-5-yl)-1H-pyrrolo [2,3-b]pyridin-2-yl)ethyl)-1,2,3,6-tetrahydropyridin-4-yl)benzamide] | 60 to 70
3 | Cc1cc(C(=O)N(C)c2ccc(C3CCN(c4ccc(NC5CCC(=O)NC5=O)cc4F)CC3)cc2)cc(F)c1C1=CCN([C@H](C)c2cc3c(-n4ccc5[nH]ccc5c4=O)ccnc3n2C)CC1 (stereo partly drawn) [Example 2g134, N-(4-(1-(4-((2,6-dioxopiper-idin-3-yl)amino)-2-fluoro-phenyl)piperidin-4-yl)phen-yl)-3-fluoro-N,5-dimethyl-4-(1-((R)-1-(1-methyl-4-(4-oxo-1,4-dihydro-5H-pyrrolo[3,2-c]pyridin-5-yl)-1H-pyrrolo [2,3-b]pyridin-2-yl)ethyl)-1,2,3,6-tetrahydropyridin-4-yl)benzamide] | 50 to 60

These compounds were tested on Eotaxin-3 (CCL26) release (assay: Human Whole Blood Eotaxin-3 Assay (IL-4 stimulated)). Details: Homo sapiens; geometric mean across assay runs and compound batches; EC50 provided for test compounds with >80% Emax.
Type: cell-based
Experimental: This was a human whole blood assay using recombinant human Interleukin 4 to stimulate the blood and measuring the ability of the test compounds to inhibit eotaxin-3 release. The biological activities of the test compounds have been tested in human whole blood stimulated with IL-4 measuring Eotaxin-3 release. The test compounds were added to 384 well clear flat-bottom plate in a 4-fold serial dilution in triplicates using a liquid handler. Human whole blood stabilized in lithium-heparin tubes was added in a volume of 65 μL per well, resulting in a final DMSO concentration of 0.5%. The plate is incubated for 2 h at 37° C. under 5% CO2/95% air. Subsequently, 5 μL of recombinant human IL-4 (R&D Systems, cat #204-ILB) was added to the wells to a final concentration of 400 pM. The plate was incubated for 48 h at 37° C. under 5% CO2/95% air. The plate was spun down for 10 minutes at 500×g and 20 μL supernatant was harvested and transferred to a 384 well v-bottom plate using a liquid handler and stored at −20° C. until further analysis. 10 μL supernatant was used to measure the level of Eotaxin-3 (CCL26) using Human Eotaxin-3 MSD kit from Mesocsale (Cat #K251UEK-4). The assay was performed according to the manufacture instructions.

Row | SMILES | EC50 [nM]
4 | CNc1cc(=O)n(-c2ccnc3c2cc(CN2CC=C(c4c(F)cc(C(=O)N5CCC(CN6CCN(c7ccc(N[C@H]8CCC(=O)NC8=O)cc7F)CC6)CC5)cc4F)CC2)n3C)cc1F (single isomer, unassigned) [Example 2g66] | 173
5 | CNc1cc(=O)n(-c2ccnc3c2cc(CN2CC=C(c4c(F)cc(C(=O)N5CCC(CN6CCN(c7ccc(N[C@@H]8CCC(=O)NC8=O)cc7F)CC6)CC5)cc4F)CC2)n3C)cc1F (single isomer, unassigned) [Example 2g67] | 99.4
6 | CNc1ccn(-c2ccnc3c2cc([C@H](C)N2CC=C(c4c(F)cc(C(=O)N5CCC(CN6CCN(c7ccc(N[C@@H]8CCC(=O)NC8=O)cc7F)CC6)CC5)cc4F)CC2)n3C)c(=O)c1 (single isomer, unassigned) [Example 2g105] | 8.7
7 | CNc1ccn(-c2ccnc3c2cc([C@H](C)N2CC=C(c4c(C)cc(C(=O)N5CCC(CN6CCN(c7ncc(N[C@@H]8CCC(=O)NC8=O)cc7F)C[C@H]6C)CC5)cc4F)CC2)n3C)c(=O)c1 (single isomer, unassigned) [Example 2g115] | 9.5
8 | CNc1cc(=O)n(-c2ccnc3c2cc([C@@H](C)N2CC=C(c4c(F)cc(C(=O)N5CCn6nc(CN7CCC(c8ccc(NC9CCC(=O)NC9=O)cc8F)CC7)cc6C5)cc4F)CC2)n3C)cc1F (stereo in doubt) [Example 2g2, 3-((4-(1-((5-(3,5-difluoro-4-(1-((R)-1-(4-(5-fluoro-4-(methylamino)-2-oxopyridin-1(2H)-yl)-1-methyl-1H-pyrrolo[2,3-b]pyridin-2-yl)-ethyl)-1,2,3,6-tetrahydro-pyridin-4-yl)benzoyl)-4,5,6,7-tetrahydropyrazolo[1,5-a]pyrazin-2-yl)methyl)piperi-din-4-yl)-3-fluorophenyl)-amino)piperidine-2,6-dione] | 119
9 | CNc1nc(=O)n(-c2ccnc3c2cc(CN2CCC(c4c(F)cc(C(=O)N5CCn6nc(CN7CCC(c8ccc(NC9CCC(=O)NC9=O)c(OC)c8)CC7)cc6C5)cc4F)CC2)n3C)cc1F (stereo not drawn) [Example 2c50, 3-((4-(1-((5-(3,5-difluoro-4-(1-((4-(5-fluoro-4-(methyl-amino)-2-oxopyrimidin-1(2H)-yl)-1-methyl-1H-pyr-rolo[2,3-b]pyridin-2-yl)meth-yl)piperidin-4-yl)benzoyl)-4,5,6,7-tetrahydropyrazolo-[1,5-a]pyrazin-2-yl)methyl)-piperidin-4-yl)-2-methoxy-phenyl)amino)piperidine-2,6-dione] | 18.7
10 | C[C@@H](c1cc2c(-n3cc(F)c4c(c3=O)CCN4)ccnc2n1C)N1CC=C(c2c(F)cc(C(=O)N3CCn4nc(CN5CCC(c6ccc(NC7CCC(=O)NC7=O)cc6F)CC5)cc4C3)cc2F)CC1 (stereo partly drawn) [Example 2g3, 3-((4-(1-((5-(3,5-difluoro-4-(1-((S)-1-(4-(7-fluoro-4-oxo-1,2,3,4-tetrahydro-5H-pyrrolo [3,2-c]pyridin-5-yl)-1-methyl-1H-pyrrolo[2,3-b]pyridin-2-yl)ethyl)-1,2,3,6-tetrahydro-pyridin-4-yl)benzoyl)-4,5,6,7-tetrahydropyrazolo[1,5-a]pyrazin-2-yl)methyl)piperi-din-4-yl)-3-fluorophenyl)-amino)piperidine-2,6-dione] | 8.8
11 | CNc1nc(=O)n(-c2ccnc3c2cc([C@H](C)N2CC=C(c4c(C)cc(C(=O)N5CCn6nc(CN7CCC(c8ccc(NC9CCC(=O)NC9=O)c(OC)c8)CC7)cc6C5)cc4F)CC2)n3C)cc1F (stereo partly drawn) [Example 2g8, 3-((4-(1-((5-(3-fluoro-4-(1-((S)-1-(4-(5-fluoro-4-(meth-ylamino)-2-oxopyrimidin-1(2H)-yl)-1-methyl-1H-pyrrolo[2,3-b]pyridin-2-yl)-ethyl)-1,2,3,6-tetrahydro-pyridin-4-yl)-5-methylbenzo-yl)-4,5,6,7-tetrahydropyrazolo [1,5-a]pyrazin-2-yl)methyl)-piperidin-4-yl)-2-methoxy-phenyl)amino)-piperidine-2,6-dione] | 1.7
12 | CNc1ccn(-c2ccnc3c2cc([C@H](C)N2CC=C(c4c(C)cc(C(=O)N5CCn6c(nnc6C6CCN(Cc7ccc(NC8CCC(=O)NC8=O)c(OC)c7)CC6)C5)cc4F)CC2)n3C)c(=O)c1 (stereo partly drawn) [Example 2g9, 3-((4-((4-(7-(3-fluoro-5-methyl-4-(1-((S)-1-(1-methyl-4-(4-(methylamino)-2-oxo-pyridin-1(2H)-yl)-1H-pyrrolo [2,3-b]pyridin-2-yl)ethyl)-1,2,3,6-tetrahydropyridin-4-yl)benzoyl)-5,6,7,8-tetra-hydro[1,2,4]triazolo[4,3-a]pyrazin-3-yl)piperidin-1-yl)-methyl)-2-methoxyphenyl)-amino)-piperidine-2,6-dione] | 803
